Assay: recombinant UMI read abundance after kanamycin selection (control-corrected) (log10(CPM+1)); higher = more efficient recombination; extreme values may be limits of the assay; sequences stand for … in AGTGCAGAGAAAATCGGCCAGTTTTCTCTGCCTGCAGTCCGCATGCCGTGGGACCCCTTGGGTTCTAACCTGTTGCCTAGATTTATGCAGCGGACTGCCTTTCTCCCAAAGTGATAAACCGG…AGGTTGGTTTCACT; site = the 11-nt donor
Summary of the method: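 In a pooled Escherichia coli screen for the IS621 bridge recombinase, donor and donor-binding-loop pairs were each placed with a 12-nt UMI on a plasmid bearing a promoterless kanamycin gene. This library was co-electroporated with a target plasmid encoding a fixed target and T7-inducible recombinase, and cells were plated either on IPTG (0.07 mM) plus kanamycin or without selection, in two replicates each. Recombinant UMIs were PCR-amplified across the donor–target junction and sequenced, and counts were converted to CPM, averaged over replicates, scaled by control-derived factors and reported as log10(CPM+1).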
With “CAATCCTCATGGACCGGTTTTCCCGGTAATCCGTATTTGAA (site CAATGCTCTTT)” the “recombinant UMI read abundance (log10)” value was 0.00935.
For “CAATCCTCATGGACCGGTTTTCCCGGTAATCCGTATTTGAA (site CAATTCTCTTT)”, the “recombinant UMI read abundance (log10)” value was 0.
In the case of “CAATGAGCATGGACCGGTTTTCCCGGTAATCCGTATTTGGG (site AAATGAGCTCC)”, the “recombinant UMI read abundance (log10)” value is reported as 0.0303.
For “CAATGAGCATGGACCGGTTTTCCCGGTAATCCGTATTTGGG (site CAATGAGCTCC)”, the “recombinant UMI read abundance (log10)” value was 0.779.
For “CAATGAGCATGGACCGGTTTTCCCGGTAATCCGTATTTGGG (site GAATGAGCTCC)”, the “recombinant UMI read abundance (log10)” value was 0.00334.
For “CAATGAGCATGGACCGGTTTTCCCGGTAATCCGTATTTGGG (site TAATGAGCTCC)”, the “recombinant UMI read abundance (log10)” value was 0.0682.
With “CAATGCCCATGGACCGGTTTTCCCGGTAATCCGTATTTGCT (site CAATACCCTAG)” the “recombinant UMI read abundance (log10)” value was 1.74.
With “CAATGCCCATGGACCGGTTTTCCCGGTAATCCGTATTTGCT (site CAATCCCCTAG)” the “recombinant UMI read abundance (log10)” value was 0.246.
In the case of “CAATGCCCATGGACCGGTTTTCCCGGTAATCCGTATTTGCT (site CAATGCCCTAG)”, the “recombinant UMI read abundance (log10)” value is reported as 1.34.
In the case of “CAATGCCCATGGACCGGTTTTCCCGGTAATCCGTATTTGCT (site CAATTCCCTAG)”, the “recombinant UMI read abundance (log10)” value is reported as 0.
With “CAATGCGCATGGACCGGTTTTCCCGGTAATCCGTATTTGAA (site CAATGCACTTT)” the “recombinant UMI read abundance (log10)” value was 1.15.
With “CAATGCGCATGGACCGGTTTTCCCGGTAATCCGTATTTGAA (site CAATGCCCTTT)” the “recombinant UMI read abundance (log10)” value was 0.0173.
With “CAATGCGCATGGACCGGTTTTCCCGGTAATCCGTATTTGAA (site CAATGCGCTTT)” the “recombinant UMI read abundance (log10)” value was 1.9.
In the case of “CAATGCGCATGGACCGGTTTTCCCGGTAATCCGTATTTGAA (site CAATGCTCTTT)”, the “recombinant UMI read abundance (log10)” value is reported as 0.823.
For “CAATGCTCATGGACCGGTTTTCCCGGTAATCCGTATTTGAC (site CAATGCTCTAT)”, the “recombinant UMI read abundance (log10)” value was 0.737.
For “CAATGCTCATGGACCGGTTTTCCCGGTAATCCGTATTTGAC (site CAATGCTCTCT)”, the “recombinant UMI read abundance (log10)” value was 0.051.
In the case of “CAATGCTCATGGACCGGTTTTCCCGGTAATCCGTATTTGAC (site CAATGCTCTGT)”, the “recombinant UMI read abundance (log10)” value is reported as 3.03.
For “CAATGCTCATGGACCGGTTTTCCCGGTAATCCGTATTTGAC (site CAATGCTCTTT)”, the “recombinant UMI read abundance (log10)” value was 1.28.
With “CAATGCTCATGGACCGGTTTTCCCGGTAATCCGTATTTGAT (site CAATGCTCTAT)” the “recombinant UMI read abundance (log10)” value was 2.87.
In the case of “CAATGCTCATGGACCGGTTTTCCCGGTAATCCGTATTTGAT (site CAATGCTCTCT)”, the “recombinant UMI read abundance (log10)” value is reported as 0.607.
In the case of “CAATGCTCATGGACCGGTTTTCCCGGTAATCCGTATTTGAT (site CAATGCTCTGT)”, the “recombinant UMI read abundance (log10)” value is reported as 1.36.
In the case of “CAATGCTCATGGACCGGTTTTCCCGGTAATCCGTATTTGAT (site CAATGCTCTTT)”, the “recombinant UMI read abundance (log10)” value is reported as 0.993.
For “CAATTAACATGGACCGGTTTTCCCGGTAATCCGTATTTGTT (site CAATTAACTAA)”, the “recombinant UMI read abundance (log10)” value was 0.00834.
In the case of “CAATTCCCATGGACCGGTTTTCCCGGTAATCCGTATTTGCT (site AAATTCCCTAG)”, the “recombinant UMI read abundance (log10)” value is reported as 0.
In the case of “CAATTCCCATGGACCGGTTTTCCCGGTAATCCGTATTTGCT (site CAAATCCCTAG)”, the “recombinant UMI read abundance (log10)” value is reported as 0.763.
With “CAATTCCCATGGACCGGTTTTCCCGGTAATCCGTATTTGCT (site CAACTCCCTAG)” the “recombinant UMI read abundance (log10)” value was 1.16.
With “CAATTCCCATGGACCGGTTTTCCCGGTAATCCGTATTTGCT (site CAAGTCCCTAG)” the “recombinant UMI read abundance (log10)” value was 1.05.
With “CAATTCCCATGGACCGGTTTTCCCGGTAATCCGTATTTGCT (site CAATACCCTAG)” the “recombinant UMI read abundance (log10)” value was 0.712.
For “CAATTCCCATGGACCGGTTTTCCCGGTAATCCGTATTTGCT (site CAATCCCCTAG)”, the “recombinant UMI read abundance (log10)” value was 0.539.
For “CAATTCCCATGGACCGGTTTTCCCGGTAATCCGTATTTGCT (site CAATGCCCTAG)”, the “recombinant UMI read abundance (log10)” value was 0.
With “CAATTCCCATGGACCGGTTTTCCCGGTAATCCGTATTTGCT (site CAATTACCTAG)” the “recombinant UMI read abundance (log10)” value was 0.
In the case of “CAATTCCCATGGACCGGTTTTCCCGGTAATCCGTATTTGCT (site CAATTCACTAG)”, the “recombinant UMI read abundance (log10)” value is reported as 0.
In the case of “CAATTCCCATGGACCGGTTTTCCCGGTAATCCGTATTTGCT (site CAATTCCCTAA)”, the “recombinant UMI read abundance (log10)” value is reported as 0.188.
For “CAATTCCCATGGACCGGTTTTCCCGGTAATCCGTATTTGCT (site CAATTCCCTAC)”, the “recombinant UMI read abundance (log10)” value was 0.184.

Reference: the supplement of paper PMC11208160
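Further: IS621 bridge recombinase in Escherichia coli cells against a fixed T5 target plasmid.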
